US8193377B2, “(−)-epigallocatechin gallate derivatives for inhibiting proteasome” (The Hong Kong Polytechnic University, priority 2004, dated 2012)
Like-named read-outs stand apart in the source and are kept apart here.

Experiments:
[1] = target: T1, proteasomal chymotrypsin-like activity in Jurkat T cells (Homo sapiens, UniProt P28074); assay: Proteasomal chymotrypsin-like activity in intact Jurkat T cells / their lysates; type: cell-based; conditions: 24 h, Jurkat T
T1 construct: measurement of the proteasomal chymotrypsin-like activity in the prepared lysates; endogenous in cells; host or cells: Jurkat T cells (human leukemia)
T1 sequence (P28074 60-263): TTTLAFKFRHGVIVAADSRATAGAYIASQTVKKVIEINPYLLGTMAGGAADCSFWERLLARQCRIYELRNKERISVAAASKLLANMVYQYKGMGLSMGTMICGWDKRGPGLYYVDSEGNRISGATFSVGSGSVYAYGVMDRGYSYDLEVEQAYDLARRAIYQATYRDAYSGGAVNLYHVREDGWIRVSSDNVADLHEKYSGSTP
Procedure: VA-13 or WI-38 cells were grown in 24 well plates (2 ml/well) to 70-80% confluency, followed by 24 h treatment with […] (−)-EGCG, 2, or 2a. […] Suc-Leu-Leu-Val-Tyr-AMC substrate was then added for 2.5 h at 37° C. and the chyrnotrypsin-like activity was measured as described above. Alternatively, cells were treated with each compound at 25 μM for 4 or 24 h, and harvested and lysed. Suc-Leu-Leu-Val-Tyr-AMC (40 μM) was then incubated with the prepared cell lysates for 2.5 h and the chymotrypsin-like activity was measured as described above.
If 1 converts to (−)-EGCG inside the cells, proteasome inhibition in vivo should be detected. To examine this possibility, human Jurkat cells was treated with 25 μM of 1 or (−)-EGCG for 12 or 24 h, followed by measurement of proteasome activity by using a chymotrypsin-like specific fluorogenic substrate in intact cells (FIG. 6a) or Western blot for ubiquinated proteins (FIG. 6b). […] To analyze the intracellular level of polyubiquitinated proteins, cells were lysed after 12 hours incubation and subjected to Western blotting. […] It is possible that the amount of EGCG generated from 1, and thus its biological activity inside the cells depends on a combination of factors: the relative permeability of 1 into the cells, the amount of esterase enzymes and the amount of anti-oxidants that may be present in the cells at any time.
To determine whether the unprotected and protected polyphenol analogs could inhibit the proteasomal activity in intact cells, leukemia Jurkat T cells were treated with each compound at 25 μM for 4 and 24 h, followed by collection of cell pellets and measurement of the proteasomal chymotrypsin-like activity in the prepared lysates.

Jurkat T cells = assay: Trypan blue cell death assay in Jurkat T cells; type: cell-based, human; conditions: 10 μM, 24 h
[2] = test system: phosphorylated Akt (p-Akt); assay: Western blot for phosphorylated Akt in Jurkat T cells; type: cell-based, human; conditions: 25 μM, 24 h
Procedure: (−)-EGCG and 1 were incubated with Jurkat T cells for 24 h at 5, 10 and 25 μM, followed by Western blot analysis using a specific antibody to phosphorylated Akt (FIG. 7). […] Actin was used as a loading control.

[3] = target: T2, purified rabbit 20s proteasome (Oryctolagus cuniculus, UniProt G1T4Q9); assay: Inhibition of chymotrypsin-like activity of purified 20S proteasome; type: biochemical
T2 construct: purchased Boston Biochem (Cambridge, Mass.)
T2 sequence (G1T4Q9 1-263): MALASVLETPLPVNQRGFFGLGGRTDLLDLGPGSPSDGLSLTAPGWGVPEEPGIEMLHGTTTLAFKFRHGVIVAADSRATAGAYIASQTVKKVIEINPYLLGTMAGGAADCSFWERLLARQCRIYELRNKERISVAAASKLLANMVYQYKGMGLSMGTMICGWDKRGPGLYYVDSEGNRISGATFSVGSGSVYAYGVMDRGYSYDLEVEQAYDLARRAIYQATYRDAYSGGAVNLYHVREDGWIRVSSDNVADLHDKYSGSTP
Procedure: Measurement of the chyrnotrypsin-like activity of the 20s proteasome was performed by incubating 0.5 μg of purified rabbit 20s proteasome with 40 μM fluorogenic peptide substrate, Suc-Leu-Leu-Val-Tyr-AMC, with or without various concentrations of natural and synthetic tea polyphenols as described previously (Nam S et. al.).
In order to test this hypothesis, proteasome activity was tested both in vitro and in intact Jurkat T cells with either 1 or (−)-EGCG (as a positive control). First, 1 and commercial (−)-EGCG were dissolved in DMSO and their effects on the chymotrypsin-like activity of purified 20S proteasomes were measured. […] In contrast, (−)-EGCG at 10 μM inhibited 80-90% of the proteasomal chymotrypsin-like activity. Therefore, as predicted, 1 outside of a cellular system is not a proteasome inhibitor.
Up to 25 μM of all protected and unprotected compounds were incubated with a purified 20s proteasome and a fluorogenic substrate for chyrnotrypsin activity for 30 min. The half-maximal inhibitory concentration or IC50 was then determined. […] This is consistent with the results above.

LNCaP cells [4] = assay: Apoptotic morphological changes, phase contrast; type: cell-based, human; conditions: 25 μM, 24 h
[5] = Stability test in RPMI 1640 culture medium, HPLC; conditions: 0.1 mM in RPMI, 37° C., pH around 8
Procedure: The stability of 1 with (−)-EGCG in a culture medium (RMPI) is compared, which mimics the body fluid with a pH value around 8. (−)-EGCG or 1 at 0.1 mM was incubated in 1 mL RMPI at 37° C. at indicated times. At different time points, the medium was analyzed by HPLC for the amount of tested compound remaining.

LNCaP cells [6] = assay: Soft agar colony formation assay; type: cell-based, human; conditions: 25 μM once at plating, 21 days
VA-13 cells = assay: Nuclear staining (Hoechst) for apoptotic morphology, VA-13; type: cell-based, human; conditions: 25 μM
Procedure: After each drug treatment, both detached and attached VA-13 and WI-38 cells were stained Hoechst 33342 to assess for apoptosis. Briefly, cells were washed 2× in PBS, fixed for 1 h with 70% ethanol at 4° C., washed 3× in PBS, and stained with […] Hoechst for 30 min in the dark at room temperature. Detached cells were plated on a slide and attached cells were visualized on the plate with a fluorescent microscope at 10× or 40× resolution (Zeiss, Germany). Digital Scientific obtained images with AxioVision 4.1 and adjusted using Adobe Photoshop 6.0.
Next, apoptotic nuclear morphology is examined after treatment with natural (−)-EGCG, 2, and 2a (FIG. 12B). […] A comparison among all the protected analogs was then performed using 25 μM for 24 h. […] All of the protected analogs induced apoptosis in transformed (VA-13), but not normal (WI-38) cells (FIGS. 12B and 12C).

YT cells = assay: Western blot in non-transformed natural killer YT cells compared with Jurkat T cells; type: cell-based, human; conditions: 25 μM, 24 h
[7] = target: 20S prokaryotic proteasome (UniProt Q9P992); assay: Table 2: effects of tea polyphenols on 20S prokaryotic proteasome activities; type: biochemical; conditions: Table 2, This work
Sequence of 20S prokaryotic proteasome (Q9P992 whole entry): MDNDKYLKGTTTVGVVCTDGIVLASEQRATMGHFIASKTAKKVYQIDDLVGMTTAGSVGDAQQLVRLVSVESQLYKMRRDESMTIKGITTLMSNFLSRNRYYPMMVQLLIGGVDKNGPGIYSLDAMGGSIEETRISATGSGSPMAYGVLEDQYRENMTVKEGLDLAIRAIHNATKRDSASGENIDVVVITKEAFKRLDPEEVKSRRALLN
Procedure: To further examine the effects of B-ring —OH group deletion on proteasome-inhibitory and cell death-inducing abilities, we synthesized several novel EGCG analogs with eliminated —OH groups on the B-ring as well as their putative prodrugs, the peracetate-protected counterparts. By using a purified 20S proteasome and a chymotrypsin-like fluorogenic substrate, the proteasome-inhibitory effects of the following unprotected polyphenol analogs are determined: […]

[8] = rats given 56 mg orally; cited from earlier work
[9] = test system: caspase-3 activity in Jurkat T cells; assay: Induction of caspase-3 activity (Ac-DEVD-AMC) in Jurkat T cells; type: cell-based, human; conditions: 25 μM, 4 h
Procedure: Cells were treated with each compound at 25 μM for 4 or 24 h, and then harvested and lysed. Ac-DEVD-AMC (40 μM) was added to the cell lysates for 2.5 h and the caspase-3 activity.
To determine if the cell death observed (FIG. 16) was due to the induction of apoptosis, a similar experiment was performed in Jurkat T cells, followed by measurement of caspase-3 activation and PARP cleavage.

[10] = Suc-Leu-Leu-Val-Tyr-AMC, 2 h incubation, Table 1, read-out: IC50 (μM), unprotected

Structure (SMILES)	inhibition at 25 µM ([1]; Jurkat, read-out: inhibition of proteasome activity in intact cells) [%]	cell death (Jurkat T cells) [%]	reduction of p-Akt level (densitometry) [2] [%]	inhibition at 10 µM ([3]; 10 μM, purified 20S proteasome, read-out: inhibition of proteasomal chymotrypsin-like activity) [%]	IC50 [3, 10] [µM]	IC50 ([3]; up to 25 μM, 30 min incubation, read-out: IC50) [µM]	apoptotic morphological changes (LNCaP cells [4])	time within which compound degraded in culture medium [5] [min]	colony formation in soft agar (LNCaP cells [6])	apoptotic nuclear morphology (VA-13 cells; 24 h)	apoptotic nuclear morphology (VA-13 cells; 36 h)	apoptosis (PARP cleavage), Jurkat T versus YT cells (YT cells)	IC50 [7] [nM]	fraction of (−)-EGCG absorbed [8] [%]	inhibition of chymotrypsin-like activity in lysates of treated cells ([1]; 25 μM) [%]	increase in caspase-3 activity [9] [fold]
O=C(O[C@@H]1Cc2c(O)cc(O)cc2O[C@@H]1c1cc(O)c(O)c(O)c1)c1cc(O)c(O)c(O)c1 [(−)-EGCG, (−)-epigallocatechin-3-gallate, reference compound]	31	5	32	80 to 90	0.3	0.2	enlarged, flattened cells	≤ 20	significant decrease in colony formation	little or no apoptosis	did initiate apoptosis	only Jurkat cells underwent apoptosis	300	0.012		
O=C(O[C@@H]1Cc2c(O)cc(O)cc2O[C@@H]1c1ccc(O)cc1)c1cc(O)c(O)c(O)c1 [Compound 6, (−)-(2R,3R)-5,7-dihydroxy-2-(4-hydroxyphenyl)chroman-3-yl 3,4,5-trihydroxybenzoate]					2.69								2690		30	4
